Assay results as given in patent publication US20090203707A1, “METHODS FOR TREATING PAIN” (priority 2008, published 2009).
Entries after “also recorded” stand apart in the source; their conditions may differ.

Experiments:
[1] = Solubility of Ranolazine in aqueous solutions versus pH; type: physicochemical
[2] = tested on: endogenous TTX-S INa in ND7-23 cells; experiment: cells; type: cell-based, rat DRG/mouse neuroblastoma hybrid; conditions: V0, recorded in the absence of TTX
[3] = tested on: hNav1.7 and rNav1.8 Na+ channels; experiment: Rate of development of slow inactivation, stated for hNav1.7 and rNav1.8 together; type: cell-based; conditions: 30 μM
Protocol: The time dependence of development of inactivation of hNav1.7 (−20 mV, FIG. 7A, n=4-5 cells) and rNav1.8 (+20 mV, FIG. 7B, n=4-5 cells) INa in the absence (▪) and presence (□) of 30 μM ranolazine is shown in FIG. 7. For control conditions, the progressive decay of currents with increasing conditioning pulse duration reflects entry of channels into inactivated states. The development of slow inactivation of hNav1.7+β1 and rNav1.8 channels could be fit with double and triple exponential functions, respectively (see Table 6, control, Development of slow inactivation).
As shown previously, (Vijayaragavan et al (2001) J. Neurosci 21:7909-18) the onset of slow inactivation of Nav1.8 channels is rapid when compared to Nav1.7 channels (˜fourfold, see Table 6, control, τF=10.78 and 43.97 msec for Nav1.8 and Nav1.7 channels, respectively). […] The time constants for development of inactivation of hNav1.7 (n=4 cells) and rNav1.8 (n=5 cells) INa with a depolarizing prepulse to −40 mV (hNav1.7) or −20 mV (rNav1.8) in the absence and presence of 30 μM ranolazine are given in Table 6.

[4] = tested on: CFA-induced thermal hyperalgesia; experiment: CFA-induced thermal hyperalgesia, paw withdrawal latency; type: in vivo, Male Sprague Dawley rats; conditions: day 3 after CFA
[5] = tested on: CFA-induced mechanical allodynia; experiment: CFA-induced mechanical allodynia, electro-von Frey withdrawal threshold; type: in vivo, Male Sprague Dawley rats
[6] = molecular target: hNav1.7+β1 subunits in HEK293 cells (Homo sapiens, UniProt Q15858); experiment: Whole-cell patch clamp, hNav1.7 INa in HEK293 cells (Example 2)
[7] = male, Sprague Dawley, rat, in vivo, po
[8] = 10 μM, 10 sec prepulse, n=4 cells
[9] = 10 μM, 100 msec prepulse, n=4 cells

hNav1.7+β1 subunits in HEK293 cells, sequence (Q15858 whole entry): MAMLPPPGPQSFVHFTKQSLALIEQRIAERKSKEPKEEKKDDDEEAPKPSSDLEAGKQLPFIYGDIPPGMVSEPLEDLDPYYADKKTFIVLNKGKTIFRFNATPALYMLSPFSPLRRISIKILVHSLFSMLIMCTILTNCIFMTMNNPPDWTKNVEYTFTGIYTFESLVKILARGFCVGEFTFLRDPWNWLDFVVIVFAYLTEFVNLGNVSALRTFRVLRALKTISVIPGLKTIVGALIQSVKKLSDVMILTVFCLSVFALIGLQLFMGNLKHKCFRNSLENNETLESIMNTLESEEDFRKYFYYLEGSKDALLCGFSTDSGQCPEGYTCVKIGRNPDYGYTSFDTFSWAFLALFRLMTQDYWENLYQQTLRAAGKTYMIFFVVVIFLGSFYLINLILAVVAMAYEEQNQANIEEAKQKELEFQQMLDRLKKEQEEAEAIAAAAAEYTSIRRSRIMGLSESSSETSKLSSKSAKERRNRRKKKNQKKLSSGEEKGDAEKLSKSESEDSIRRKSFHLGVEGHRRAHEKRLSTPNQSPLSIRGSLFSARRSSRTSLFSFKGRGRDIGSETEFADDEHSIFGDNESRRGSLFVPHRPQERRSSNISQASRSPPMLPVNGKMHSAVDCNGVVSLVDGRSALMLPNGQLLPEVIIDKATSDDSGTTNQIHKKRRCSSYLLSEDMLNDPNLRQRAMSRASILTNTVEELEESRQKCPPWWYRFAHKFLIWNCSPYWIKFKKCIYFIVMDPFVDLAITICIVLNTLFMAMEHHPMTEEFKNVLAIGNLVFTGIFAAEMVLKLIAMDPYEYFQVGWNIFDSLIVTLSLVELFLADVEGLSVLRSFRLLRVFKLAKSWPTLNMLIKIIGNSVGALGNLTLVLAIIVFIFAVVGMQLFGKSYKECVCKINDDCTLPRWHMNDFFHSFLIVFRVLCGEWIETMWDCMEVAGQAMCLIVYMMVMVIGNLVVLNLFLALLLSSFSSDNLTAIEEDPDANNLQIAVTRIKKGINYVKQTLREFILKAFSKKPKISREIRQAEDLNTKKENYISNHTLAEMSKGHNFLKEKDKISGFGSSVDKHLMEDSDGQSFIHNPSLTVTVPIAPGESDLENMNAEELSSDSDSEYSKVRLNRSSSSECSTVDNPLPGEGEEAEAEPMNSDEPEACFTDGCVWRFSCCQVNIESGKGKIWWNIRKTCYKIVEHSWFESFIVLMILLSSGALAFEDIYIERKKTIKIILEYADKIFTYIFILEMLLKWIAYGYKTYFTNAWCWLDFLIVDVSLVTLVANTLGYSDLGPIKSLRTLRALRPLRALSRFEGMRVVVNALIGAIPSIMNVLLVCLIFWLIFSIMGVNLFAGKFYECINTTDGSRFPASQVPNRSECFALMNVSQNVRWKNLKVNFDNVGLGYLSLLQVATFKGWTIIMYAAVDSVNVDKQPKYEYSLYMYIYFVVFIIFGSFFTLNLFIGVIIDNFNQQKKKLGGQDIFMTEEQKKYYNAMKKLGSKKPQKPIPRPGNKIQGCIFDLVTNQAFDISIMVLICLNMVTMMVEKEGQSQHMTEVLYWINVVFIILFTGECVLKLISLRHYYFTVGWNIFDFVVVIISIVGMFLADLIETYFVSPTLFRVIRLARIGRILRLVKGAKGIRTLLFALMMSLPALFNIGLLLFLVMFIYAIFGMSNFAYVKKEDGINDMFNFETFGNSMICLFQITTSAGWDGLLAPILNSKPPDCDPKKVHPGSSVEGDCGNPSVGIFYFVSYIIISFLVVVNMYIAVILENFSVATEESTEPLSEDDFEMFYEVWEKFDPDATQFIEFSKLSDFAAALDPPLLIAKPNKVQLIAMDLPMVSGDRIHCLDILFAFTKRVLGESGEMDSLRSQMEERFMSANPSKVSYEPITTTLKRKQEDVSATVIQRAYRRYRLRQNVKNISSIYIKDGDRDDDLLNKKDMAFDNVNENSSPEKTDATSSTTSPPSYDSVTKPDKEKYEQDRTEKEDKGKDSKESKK
hNav1.7+β1 subunits in HEK293 cells, sequence (Q07699 19-218 partner): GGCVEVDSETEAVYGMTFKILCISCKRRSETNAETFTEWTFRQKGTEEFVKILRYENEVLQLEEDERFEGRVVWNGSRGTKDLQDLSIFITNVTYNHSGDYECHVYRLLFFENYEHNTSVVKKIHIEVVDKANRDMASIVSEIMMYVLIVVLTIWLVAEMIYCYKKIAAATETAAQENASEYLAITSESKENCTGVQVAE

COc1ccccc1OCC(O)CN1CCN(CC(=O)Nc2c(C)cccc2C)CC1 (racemic) [Ranolazine, (±)-N-(2,6-dimethylphenyl)-4-[2-hydroxy-3-(2-methoxyphenoxy)-propyl]-1-piperazineacetamide]
USP Solubility Class ([1]; Solution pH 4.81): Freely Soluble | USP Solubility Class ([1]; Solution pH 4.89): Soluble | USP Solubility Class ([1]; Solution pH 4.90): Soluble | USP Solubility Class ([1]; Solution pH 5.04): Soluble | USP Solubility Class ([1]; Solution pH 5.35): Sparingly Soluble | USP Solubility Class ([1]; Solution pH 5.82): Slightly soluble | USP Solubility Class ([1]; Solution pH 6.46): Slightly soluble | USP Solubility Class ([1]; Solution pH 6.73): Very slightly soluble | USP Solubility Class ([1]; Solution pH 7.08): Very slightly soluble | USP Solubility Class ([1]; Solution pH 7.59 (unbuffered water)): Very slightly soluble | USP Solubility Class ([1]; Solution pH 7.79): Very slightly soluble | USP Solubility Class ([1]; Solution pH 12.66): Very slightly soluble | IC50 ([2]; ND7/23, read-out: IC50 value, block of TTX-S INa): 9.05 ± 0.56 µM | Hill Coefficient, block of TTX-S INa [2]: [1.15 ± 0.08] | Rate of development of slow inactivation, faster than control ([3]; −20 mV (hNav1.7), +20 mV (rNav1.8)): 2-5 fold | Rate of development of slow inactivation, faster than control ([3]; −40 mV (hNav1.7), −20 mV (rNav1.8)): 4-10 fold | Effect on paw withdrawal from thermal stimulation ([4]; i.p. 10, 20, 50 mg/kg, 30 minutes after dosing): no significant effect on paw sensitivity was observed; also recorded: no significant effect of treatment on paw withdrawal from thermal stimulation | Effect on paw withdrawal from thermal stimulation ([4]; p.o. 20, 50, 100, 200 mg/kg, 1 hour after gavage): no significant effect of treatment on paw withdrawal from thermal stimulation | Effect on mechanical allodynia (paw sensitivity to mechanical stimulation) ([5]; i.p. 10, 20, 50 mg/kg, 30 minutes after dosing, day 3 after CFA): clearly reduced paw sensitivity to mechanical stimulation in a dose-dependent fashion; also recorded: dose dependent reduction in mechanical allodynia | Dose at which maximum analgesic response was achieved ([5]; oral gavage, plateau to the analgesic response): 100 mg/kg | Analgesic effect at highest oral dose ([5]; p.o. 200 mg/kg): non-significant trend toward a reduction in analgesic effect | Effect on mechanical allodynia ([5]; p.o. 20, 50, 100, 200 mg/kg, 1 hour after gavage, day 3 after CFA): dose dependent reduction in mechanical allodynia | Optimum oral dosing for reduction of mechanical allodynia ([5]; p.o., no additional benefit at higher doses (FIG. 11 legend)): 50 mg/kg | Death (Male Sprague Dawley rats; doses of 100 mg/kg (i.p.)): 50% | Doses at which adverse effects were noted (Male Sprague Dawley rats; male, Sprague Dawley, rat, in vivo, ip): ≥ 100 mg/kg | Time of onset of adverse pulmonary event after drug administration (Male Sprague Dawley rats; [7]): approximately 1 hour | Time to resolution of adverse pulmonary effect after gavage (Male Sprague Dawley rats; [7]): ≤ 24 h | Adverse event (Male Sprague Dawley rats; rat, in vivo, po): respiratory strider | Inactivation V1/2 (steady-state intermediate, 1 sec prepulse) ([6]; 1 μM): −78.97 ± 3.09 mV | Inactivation slope factor k (1 sec prepulse) ([6]; 1 μM): 4.80 ± 0.21 mV/e-fold | Inactivation V1/2 (steady-state intermediate, 1 sec prepulse) ([6]; 3 μM): −84.44 ± 3.64 mV | Inactivation slope factor k (1 sec prepulse) ([6]; 3 μM): 4.76 ± 0.11 mV/e-fold | Activation V1/2 ([6]; 10 μM): −33.96 ± 2.06 mV | Activation slope factor k ([6]; 10 μM): 4.77 ± 0.32 mV/e-fold | Inactivation V1/2 (steady-state intermediate, 1 sec prepulse) ([6]; 10 μM): −86.99 ± 2.86 mV | Inactivation slope factor k (1 sec prepulse) ([6]; 10 μM): 4.56 ± 0.1 mV/e-fold | V1/2 of steady-state slow inactivation [6, 8]: −61.39±3.54 | k of steady-state slow inactivation [6, 8]: 14.22±2.14 | V1/2 of steady-state fast inactivation [6, 9]: −86.15±3.62 | k of steady-state fast inactivation [6, 9]: 7.55±0.82 | Inactivation V1/2 (steady-state intermediate, 1 sec prepulse) ([6]; 30 μM): −89.07 ± 5.41 mV | Inactivation slope factor k (1 sec prepulse) ([6]; 30 μM): 5.15 ± 0.31 mV/e-fold | Development of slow inactivation, AF ([6]; 30 μM, at −20 mV): 0.24 ± 0.02 | Development of slow inactivation, AS ([6]; 30 μM, at −20 mV): 0.56 ± 0.01 | Development of slow inactivation, τF ([6]; 30 μM, at −20 mV): 9.14 ± 2.49 ms | Development of slow inactivation, τS ([6]; 30 μM, at −20 mV): 1657.71 ± 180.23 ms | Time constant of INa decay (single exponential) ([6]; 30 μM, at −20 mV, n=4 cells): 0.68 ± 0.15 ms | Development of slow inactivation, AF ([6]; 30 μM, at −40 mV): 0.30 ± 0.02 | Development of slow inactivation, AS ([6]; 30 μM, at −40 mV): 0.67 ± 0.02 | Development of slow inactivation, τF ([6]; 30 μM, at −40 mV): 23.99 ± 2.92 ms
